Key:
SIRT1 [1] = assay: Test Example 2: real-time PCR of SIRT1 mRNA expression in femoral muscle of mice given KIT13; format: in vivo; settings: four-week-old male c57BL6J mice, by drinking water, 20 µg/kg for four weeks; femoral muscles; mRNA normalized by β-actin; FIG. 7
Procedure: (§1) KIT13 was administered to four-week-old male c57BL6J mice (five mice per group, n = 5) by drinking water at a dose of 20 µg/kg for four weeks. Femoral muscles were collected from each mouse and analyzed as follows.
(§2) Femoral muscles were crushed by homogenization using 18G to 25G injection needles in Buffer A (0.25 M sucrose, 10 mM Hepes-KOH (pH 7.5), 1 mM EDTA, protease inhibitor cocktail), and RNA was extracted from the cells based on equal amounts of protein using TRIzol (manufactured by Thermo Fisher Scientific). Subsequently, a first strand cDNA was prepared using PrimeScript RT Master Mix (manufactured by Takara), and mRNA expression of target genes and endogenous control genes was detected by real-time PCR using TB Green Premix Ex Taq II (manufactured by Takara) and T100 (trademark) Thermal Cycler (manufactured by BIO-RAD). The target genes were NAMPT and SIRT1, and the endogenous control gene was β-actin. Measurement values of each gene were normalized by measurement values of β-actin.

ATP5A1 = assay: Test Example 1: real-time PCR of ATP5A1 mRNA expression in HHORSCs cultured with KIT13; format: cell-based; settings: Human hair outer root sheath cells (HHORSCs), 5 µg/ml, 7 hours; mRNA normalized by 18S rRNA; vs culture medium not containing KIT13; FIG. 5
Procedure: (§3) Human hair outer root sheath cells (HHORSCs; manufactured by ScienCell Research Laboratories, #2420) were cultured for 7 hours in a culture medium containing 5 µg/ml of KIT13. As a culture medium for HHORSCs, a mesenchymal stem cell medium (manufactured by ScienCell Research Laboratories, #7501) was used. As a negative control, HHORSCs were cultured in a culture medium not containing KIT13.
(§4) RNA was extracted from cells using TRIzol (manufactured by Thermo Fisher Scientific). Subsequently, a first strand cDNA was prepared using PrimeScript RT Master Mix (manufactured by Takara), and mRNA expression of target genes and endogenous control genes was detected by real-time PCR using TB Green Premix Ex Taq II (manufactured by Takara) and T100 (trademark) Thermal Cycler (manufactured by BIO-RAD). The target genes were NAMPT, SIRT1, and NRF1, UQCRC1, and ATP5A1 whose expression is induced by activation of SIRT1 (Yuanyuan Huang, and ten others, "Resveratrol-induced Sirt1 phosphorylation by LKB1 mediates mitochondrial metabolism", J. Biol. Chem., 2021, 297(2), 100929). As the endogenous control gene, 18S ribosomal RNA (18S rRNA) was used, and measurement values of each gene were normalized by measurement values of 18S rRNA.

NRF1 = assay: Test Example 1: real-time PCR of NRF1 mRNA expression in HHORSCs cultured with KIT13; format: cell-based; settings: Human hair outer root sheath cells (HHORSCs), 5 µg/ml, 7 hours; mRNA normalized by 18S rRNA; vs culture medium not containing KIT13; FIG. 3
Procedure: as §3, §4

NAMPT [2] = assay: Test Example 2: real-time PCR of NAMPT mRNA expression in femoral muscle of mice given KIT13; format: in vivo; settings: four-week-old male c57BL6J mice, by drinking water, 20 µg/kg for four weeks; femoral muscles; mRNA normalized by β-actin; FIG. 6
Procedure: as §1, §2

NAMPT [3] = assay: Test Example 1: real-time PCR of NAMPT mRNA expression in HHORSCs cultured with KIT13; format: cell-based; settings: Human hair outer root sheath cells (HHORSCs), 5 µg/ml, 7 hours; mRNA normalized by 18S rRNA; vs culture medium not containing KIT13; FIG. 1
Procedure: as §3, §4

UQCRC1 = assay: Test Example 1: real-time PCR of UQCRC1 mRNA expression in HHORSCs cultured with KIT13; format: cell-based; settings: Human hair outer root sheath cells (HHORSCs), 5 µg/ml, 7 hours; mRNA normalized by 18S rRNA; vs culture medium not containing KIT13; FIG. 4
Procedure: as §3, §4

SIRT1 [4] = assay: Test Example 1: real-time PCR of SIRT1 mRNA expression in HHORSCs cultured with KIT13; format: cell-based; settings: Human hair outer root sheath cells (HHORSCs), 5 µg/ml, 7 hours; mRNA normalized by 18S rRNA; vs culture medium not containing KIT13; FIG. 2
Procedure: as §3, §4

**Q.** Which “relative expression level of SIRT1 in muscle” value (SIRT1 [1]) does the source give for `CCCCC/C=C\C/C=C\C/C=C\C/C=C\CCCC(=O)O[C@H](COCCCCCCCCCCCCCCCCCC)COP(=O)(O)OCCN` [KIT13] here?
**A.** significantly increased

**Q.** What about the “relative expression level of ATP5A1” value (ATP5A1) of the same compound?
**A.** increased

**Q.** What about the “relative expression level of NRF1” value (NRF1) of the same compound?
**A.** increased

**Q.** What about the “relative expression level of NAMPT in muscle” value (NAMPT [2]) of the same compound?
**A.** significantly increased

**Q.** And the “relative expression level of NAMPT” value (NAMPT [3])?
**A.** significantly increased

**Q.** And the “relative expression level of UQCRC1” value (UQCRC1)?
**A.** increased

**Q.** And the “relative expression level of SIRT1” value (SIRT1 [4])?
**A.** significantly increased

Source: patent publication EP4778526A1, “ANTI-AGING AGENT, ORAL COMPOSITION FOR ANTI-AGING, AND USE OF COMPOUND” (Institute of Rheological Function of Food Co., Ltd., priority 2023, dated 2025)
